One assay has as its system KG1a AML cells. Kind of assay: KG1a subcutaneous xenograft model of AML, tumor volume. The format is in vivo, SCID mice. The conditions noted are these: FIG. 1, AZD2811 nanoparticles 100 mg/kg iv once weekly, 5-azacytidine 1 mg/kg ip twice-daily for three days, 4 rest days, 3 weekly cycles, start day 1. On the procedure: (§1) KG1a: 2×10^7 KG1a AML cells in 50% matrigel were implanted subcutaneously on the left flank of adult female SCID mice. Mice were randomised into groups of 12 and dosing was started for all drugs and all combinations at day 1 (D1) following implant. AZD2811 nanoparticles were dosed at once weekly with a 20-30 s intravenous infusion at 100 mg/kg (100 mg/kg was the maximum tolerated dose in combination 5-azacytidine at 1 mg/kg; 5-azacytidine was dosed twice-daily for three days by the intraperitoneal route, followed by 4 rest days of no dosing). All drugs were given for 3 weekly cycles. Tumors were measured twice weekly by single operators, and all dosing was performed by randomised cage to minimise systematic bias. Mice reached study surival endpoint when tumors reached 1.5 cm^3.

A further assay concerns HL-60 AML cells. Kind of assay: HL-60 subcutaneous xenograft model of AML, tumor volume and survival. The format is in vivo, SCID mice. The note with it: HL-60 xenograft, FIG. 2; AZD2811 nanoparticles 25 mg/kg iv once weekly; 5-azacytidine 1 mg/kg ip twice-daily for three days, 4 rest days; 3 weekly cycles, start day 7; monotherapy compared with KG1a model. As for the experimental part: as §1, with “HL-60: 1×10^7 HL-60 AML” for “KG1a: 2×10^7 KG1a AML”, “day 7 respectively” for “day 1 (D1)”, “at either 25” for “at 100”, “study survival” for “study surival”, “1.5 cm^3” for “1.5 cm^3.”

For the compound `Nc1ncn([C@@H]2O[C@H](CO)[C@@H](O)[C@H]2O)c(=O)n1` [5-azacytidine, 4-amino-1-(β-D-ribofuranosyl)-1,3,5-triazin-2(1H)-one], the “efficacy (reduction in tumor volume over time)” value is given as “modestly efficacious” in the assay with KG1a AML cells and “greater efficacy” with HL-60 AML cells.

(Values after patent US20210315898A1, “COMBINATION THERAPY FOR TREATING CANCER” (AstraZeneca AB, priority 2018, published 2021).)
